Test results taken from patent US8785439B2, “2,5,7-substituted oxazolopyrimidine derivatives” (Sanofi, priority 2010, dated 2014).

target: T1, human Edg-1 receptor (Homo sapiens, UniProt P21453); experiment: GTP-γ-S assay using human Edg-1 receptors (SPA, CHO Flp-In cell membrane preparation); assay type: biochemical; conditions: test compound at 10 μM; high control 10 μM S1P regarded as 100% activation; background-corrected; triplicate
T1 construct: FLAG (N); expressed in transfected cells; membrane preparation
T1 sequence (P21453 whole entry): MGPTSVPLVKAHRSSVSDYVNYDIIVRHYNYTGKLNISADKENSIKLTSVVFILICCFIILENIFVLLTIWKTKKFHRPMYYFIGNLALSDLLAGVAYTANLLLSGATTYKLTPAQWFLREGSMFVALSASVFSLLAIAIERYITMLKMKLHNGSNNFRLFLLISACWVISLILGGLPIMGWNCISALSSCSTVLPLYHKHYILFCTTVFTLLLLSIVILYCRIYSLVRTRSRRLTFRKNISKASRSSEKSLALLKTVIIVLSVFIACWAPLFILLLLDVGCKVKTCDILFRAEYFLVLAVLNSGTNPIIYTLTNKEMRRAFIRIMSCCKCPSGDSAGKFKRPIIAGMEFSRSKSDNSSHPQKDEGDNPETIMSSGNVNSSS
Source text: Determination of the Pharmacological Activity A) GTP-γ-S Assay Using Human Edg-1 Receptors
In order to determine the Edg-1 receptor activation by the compounds of the invention, a GTP-γ-S (guanosine 5′-[γ-thio]triphosphate) assay for G-protein coupled receptor binding based on the scintillation proximity assay principle was used, employing a cell membrane preparation from a CHO Flp-In cell line which constitutively overexpresses the human Edg-1 receptor.
The Flp-In™ expression system (Invitrogen, cat. no. K6010-01) allows the generation of stable mammalian cell lines into which the gene of interest has been integrated through homologous recombination at a specific genomic location called Flp Recombination Target (FRT) site by means of a Flp recombinase encoded by the pOG44 expression plasmid. The integration of the pcDNA5/FRT expression construct into the Flp-In host cell line genome results in the transcription of the gene of interest. The stably transfected cells become hygromycin-resistant.
One day prior to transfection, 200 000 Flp-In-CHO cells were seeded in Ham F-12 medium (Invitrogen, cat. no. 31765) supplemented with 10% fetal calf serum (FCS; Perbio Science, cat. no. SH30068.03) in a 6-well plate and incubated at 37° C./5% CO2 overnight. Using the FuGENE® 6 transfection reagent (Roche, cat. no. 11988387001), cells were cotransfected with the Flp recombinase expression plasmid pOG44 and a modified plasmid additionally containing the edg-1 gene (accession no. NM_001400) termed as pcDNA5-FRT-TO_nFLAG_DEST-EDG-1 with a 9:1 ratio. To obtain the modified pcDNA5-FRT-TO_nFLAG_DEST plasmid, the Invitrogen plasmid pcDNA5/FRT/TO (Invitrogen, cat. no. V6520-20) was adapted to the Gateway® (Invitrogen) cloning system by inserting a Gateway cassette containing attR recombination sites flanking a ccdB gene and a chloramphenicol-resistance gene (Gateway conversion system, Invitrogen, cat. no. 11828-029). In addition a FLAG tag epitope was added before the 5′ att recombination site to allow recombinant expression of N-terminally FLAG-tagged proteins.
For the transfection of one well, 1.08 μg of pOG44 and 0.12 μg of pcDNA5-FRT-TO_nFLAG_DEST-EDG-1 were mixed with 100 μl of serum-free Ham F-12 medium containing 6 μl of FuGENE® 6 transfection reagent. After 20 min of incubation, the transfection reagent/DNA complex was distributed dropwise on the cells. The cells were incubated for 24 h at 37° C. Then the cells from 3 wells each were transferred to a T75 flask (Greiner Cellstar®, cat. no. 658175) containing Ham F-12 medium supplemented with 10% of FCS but without antibiotic and were incubated another 24 h. 48 h after transfection, the medium was replaced by selection medium (Ham F-12 supplemented with 10% of FCS and 300 μg/ml of hygromycin B (Invitrogen, cat. no. 10687-010)). The medium was exchanged every 2 to 3 days until a resistant population of cells had grown. […] After 2 weeks of selection, the cells were transferred into T175 flasks (Greiner Cellstar®, cat. no. 660175) and cultivated for batch production. Cells were harvested from the culture flasks by short treatment (2 to 5 min) with Accutase (PAA, cat. no. L11-007), resuspended in selection medium (see above) and centrifuged at 200×g for 5 min. Cells were resuspended in a mixture of 90% of FCS and 10% of dimethylsulfoxide and stored frozen in liquid nitrogen.
A membrane preparation was obtained by standard methods from the afore-described CHO Flp-In cell line constitutively overexpressing the human Edg-1 receptor. Briefly, the cryopreserved cells were taken in culture and grown until confluency in T175 cell culture flasks (Becton Dickinson, cat. no. 35 5001). […]

Row | % Activation (Edg-1 receptor activation in percent of the activation by 10 μM S1P) [%] | SMILES
1 | 58 | CCCOc1nc(NC2CCC(C)CC2)nc2oc(-c3cc(F)ccc3Cl)nc12 (stereo not drawn) [Example 148, [2-(2-chloro-5-fluoro-phenyl)-7-propoxy-oxazolo[5,4-d]pyrimidin-5-yl]-(4-methyl-cyclohexyl)-amine]

same assay, conditions: test compound at 10 μM; high control 10 μM S1P regarded as 100% activation; background-corrected; triplicate; read-out: % Activation (Edg-1 receptor activation in percent of the activation by 10 μM S1P)

Row | SMILES | activation at 10 µM [%]
2 | CCCOc1nc(Oc2cccc(N(C)C)c2)nc2oc(-c3cccc(C)c3)nc12 [Example 131, dimethyl-[3-(7-propoxy-2-(3-methyl-phenyl)-oxazolo[5,4-d]pyrimidin-5-yloxy)-phenyl]-amine] | 51
3 | C=CCCCOc1nc(OCCC)c2nc(-c3cccc(C)c3)oc2n1 [Example 9, 5-Pent-4-enyloxy-7-propoxy-2-(3-methylphenyl)-oxazolo[5,4-d]pyrimidine] | 87
4 | CCCOc1nc(Oc2cc(C)ccc2C)nc2oc(-c3cccc(C)c3)nc12 [Example 133, 5-(2,5-dimethyl-phenoxy)-7-propoxy-2-(3-methyl-phenyl)-oxazolo[5,4-d]pyrimidine] | 92
5 | CCCOc1nc(Oc2ccccc2SC)nc2oc(-c3cccc(C)c3)nc12 [Example 139, 5-(2-methylsulfanyl-phenoxy)-7-propoxy-2-(3-methyl-phenyl)-oxazolo[5,4-d]pyrimidine] | 120
6 | Cc1cc(Oc2nc(OCC3CC3)c3nc(-c4cccc(F)c4)oc3n2)n(C)n1 [Example 102, 7-cyclopropylmethoxy-5-(2,5-dimethyl-2H-pyrazol-3-yloxy)-2-(3-fluoro-phenyl)-oxazolo[5,4-d]pyrimidine] | 130
7 | CCCOc1nc(Oc2cccc(C)c2)nc2oc(-c3cccc(C)c3)nc12 [Example 98, 7-propoxy-2-(3-methyl-phenyl)-5-(3-methyl-phenyl)oxy-oxazolo[5,4-d]pyrimidine] | 107
8 | CCCOc1nc(Oc2ccccc2C(F)(F)F)nc2oc(-c3cccc(C)c3)nc12 [Example 141, 7-propoxy-2-(3-methyl-phenyl)-5-(2-trifluoromethyl-phenoxy)-oxazolo[5,4-d]pyrimidine] | 103

More lines, now with the values ahead:

Row | activation at 10 µM [%] | SMILES
9 | 87 | CCCOc1nc(OC2CCC(C(F)(F)F)CC2)nc2oc(-c3cc(F)ccc3Cl)nc12 (stereo not drawn) [Example 154, 2-(2-chloro-5-fluoro-phenyl)-7-propoxy-5-(4-trifluoromethyl-cyclohexyloxy)-oxazolo[5,4-d]pyrimidine]
10 | 111 | CCCOc1nc(OC2CCCCC2)nc2oc(-c3cccc(F)c3)nc12 [Example 62, 5-cyclohexyloxy-2-(3-fluoro-phenyl)-7-propoxy-oxazolo[5,4-d]pyrimidine]
11 | 122 | CCCOc1nc(Oc2cc(F)ccc2F)nc2oc(-c3cccc(C)c3)nc12 [Example 94, 5-(2,5-difluoro-phenoxy)-7-propoxy-2-(3-methyl-phenyl)-oxazolo[5,4-d]pyrimidine]
12 | 106 | CCCOc1nc(Oc2cc(Cl)ccc2C)nc2oc(-c3cc(F)ccc3Cl)nc12 [Example 66, 2-(2-chloro-5-fluoro-phenyl)-5-(5-chloro-2-methyl-phenoxy)-7-propoxy-oxazolo[5,4-d]pyrimidine]
13 | 46 | CCCOc1nc(OC2CCCCC2)nc2oc(-c3cc(F)ccc3Cl)nc12 [Example 80, 2-(2-chloro-5-fluoro-phenyl)-5-cyclohexyloxy-7-propoxy-oxazolo[5,4-d]pyrimidine]
14 | 104 | O=S1(=O)CCC(Sc2nc(OCC3CC3)c3nc(-c4cc(F)ccc4Cl)oc3n2)C1 (stereo not drawn) [Example 13, 2-(2-chloro-5-fluoro-phenyl)-7-cyclopropylmethoxy-5-(1,1-dioxo-tetrahydro-1lambda6-thiophen-3-ylsulfanyl)-oxazolo[5,4-d]pyrimidine]
15 | 92 | CCCOc1nc(Oc2cc(F)ccc2C)nc2oc(-c3ccc(Cl)c(Cl)c3)nc12 [Example 157, 2-(3,4-dichloro-phenyl)-5-(5-fluoro-2-methyl-phenoxy)-7-propoxy-oxazolo[5,4-d]pyrimidine]
